These results are taken from ChEMBL document CHEMBL3045479, “Synthesis and anti-cancer activity of some novel C-17 analogs of ursolic and oleanolic acids” (2013).

What all share (type): functional
In one assay the test system is PC-3. The assay is described as follows: Growth inhibition of Homo sapiens (human) PC3 cells at 10 uM after 48 hr by SRB assay. The note with it: PC-3, 48 h, read-out: GI. (In general: The SRB assay estimates cell density from bound dye.)
Another assay has as its system COLO 205. The assay is described as follows: Growth inhibition of Homo sapiens (human) COLO205 cells at 10 uM after 48 hr by SRB assay. The note with it: COLO 205, 48 h, read-out: GI.
Another assay concerns THP-1. The assay is described as follows: Growth inhibition of Homo sapiens (human) THP1 cells at 10 uM after 48 hr by SRB assay. The note with it: THP-1, 48 h, read-out: GI.
In the next assay the test system is A549. The assay can be described thus: Growth inhibition of Homo sapiens (human) A549 cells at 10 uM after 48 hr by SRB assay. The conditions noted are these: A549, 48 h, read-out: GI.
Another assay concerns HeLa. The assay is described as follows: Growth inhibition of Homo sapiens (human) HeLa cells at 10 uM after 48 hr by SRB assay. The note with it: read-out: GI.
Another assay relates to SW-620. The assay is described as follows: Growth inhibition of Homo sapiens (human) SW620 cells at 10 uM after 48 hr by SRB assay. The note with it: SW-620, 48 h, read-out: GI.
The test system of another assay is SiHa. The assay can be described thus: Growth inhibition of Homo sapiens (human) SiHa cells at 10 uM after 48 hr by SRB assay. The note with it: read-out: GI.
The test system of a further assay is IMR-32. The assay can be described thus: Growth inhibition of Homo sapiens (human) IMR32 cells at 10 uM after 48 hr by SRB assay. The conditions noted are these: IMR-32, 48 h, read-out: GI.

Structures can show the parent of a compound that is named as a salt.

As for `C[C@H]1[C@H](C)CC[C@]2(C(=O)OCCBr)CC[C@]3(C)C(=CC[C@@H]4[C@@]5(C)CC[C@H](O)C(C)(C)[C@@H]5CC[C@]43C)[C@H]12`, the inhibition of growth at 10 µM in the assay with PC-3 was 23%; in the assay on COLO 205, 12%; in the assay on THP-1, 54%; in the assay on A549, 28%.
Take `CC(C)=CCOC(=O)[C@]12CC[C@@H](C)[C@H](C)[C@H]1C1=CC[C@@H]3[C@@]4(C)CC[C@H](O)C(C)(C)[C@@H]4CC[C@@]3(C)[C@]1(C)CC2`: the inhibition of growth at 10 µM with COLO 205 worked out at 0%; in the assay with HeLa it was 24%; with SW-620, 2%; in the assay on SiHa, 21%; in the assay with A549, 12%; with IMR-32 it was 19%.
For `C=CCOC(=O)[C@]12CCC(C)(C)C[C@H]1C1=CC[C@@H]3[C@@]4(C)CC[C@H](O)C(C)(C)[C@@H]4CC[C@@]3(C)[C@]1(C)CC2` [3BETA-HYDROXY-OLEAN-12-EN-28-ALLYLATE], the inhibition of growth at 10 µM with COLO 205 was 0%; in the assay on HeLa, 0%; with SW-620, 1%; with SiHa it was 15%; in the assay with A549, 31%; in the assay on IMR-32, 16%.
For the compound `COC(=O)COC(=O)[C@]12CCC(C)(C)C[C@H]1C1=CC[C@@H]3[C@@]4(C)CC[C@H](O)C(C)(C)[C@@H]4CC[C@@]3(C)[C@]1(C)CC2` [3BETA-HYDROXY-OLEAN-12-EN-28-METHYL ACETOACETATE], the inhibition of growth at 10 µM with COLO 205 was 2%; in the assay with HeLa, 13%; in the assay on SW-620 it was 4%; in the assay on SiHa, 19%; with A549, 25%; in the assay with IMR-32, 18%.
Regarding `CC(C)=CCOC(=O)[C@]12CCC(C)(C)C[C@H]1C1=CC[C@@H]3[C@@]4(C)CC[C@H](O)C(C)(C)[C@@H]4CC[C@@]3(C)[C@]1(C)CC2` [3BETA-HYDROXY-OLEAN-12-EN-28-PRENYLATE], the inhibition of growth at 10 µM with COLO 205 worked out at 0%; in the assay with HeLa, 5%; with SW-620 it was 13%; in the assay on SiHa, 36%; in the assay with A549 it was 25%; with IMR-32 it was 16%.
As to `C#CCOC(=O)[C@]12CCC(C)(C)C[C@H]1C1=CC[C@@H]3[C@@]4(C)CC[C@H](O)C(C)(C)[C@@H]4CC[C@@]3(C)[C@]1(C)CC2` [3BETA-HYDROXY-OLEN-12-EN-28-PROPARGYLATE], the inhibition of growth at 10 µM in the assay on COLO 205 is 15%; with HeLa, 27%; with SW-620, 2%; with SiHa, 30%; with A549, 20%; in the assay on IMR-32, 16%.
For the compound `C=CCOC(=O)[C@]12CC[C@@H](C)[C@H](C)[C@H]1C1=CC[C@@H]3[C@@]4(C)CC[C@H](O)C(C)(C)[C@@H]4CC[C@@]3(C)[C@]1(C)CC2` [3BETA-HYDROXY-URS-12-EN-28-ALLYLATE], the inhibition of growth at 10 µM with COLO 205 was determined as 0%; in the assay on HeLa, 0%; in the assay with SW-620 it was 0%; in the assay on SiHa it was 25%; in the assay on A549, 19%; in the assay on IMR-32, 20%.
Regarding `COC(=O)COC(=O)[C@]12CC[C@@H](C)[C@H](C)[C@H]1C1=CC[C@@H]3[C@@]4(C)CC[C@H](O)C(C)(C)[C@@H]4CC[C@@]3(C)[C@]1(C)CC2` [3BETA-HYDROXY-URS-12-EN-28-METHYL ACETOACETATE], the inhibition of growth at 10 µM with COLO 205 is 0%; in the assay on HeLa, 11%; in the assay on SW-620, 0%; in the assay on SiHa it was 24%; with A549, 23%; in the assay on IMR-32, 18%.
On to `C#CCOC(=O)[C@]12CC[C@@H](C)[C@H](C)[C@H]1C1=CC[C@@H]3[C@@]4(C)CC[C@H](O)C(C)(C)[C@@H]4CC[C@@]3(C)[C@]1(C)CC2` [3BETA-HYDROXY-URS-12-EN-28-PROPARGYLATE], for which the inhibition of growth at 10 µM with COLO 205 came out at 0%; with HeLa, 0%; in the assay with SW-620 it was 0%; in the assay with SiHa it was 4%; in the assay on A549, 24%; in the assay on IMR-32, 11%.
On to `C[C@H]1[C@H](C)CC[C@]2(C(=O)OCCCCBr)CC[C@]3(C)C(=CC[C@@H]4[C@@]5(C)CC[C@H](O)C(C)(C)[C@@H]5CC[C@]43C)[C@H]12` [BROMOBUTYL-3BETA-HYDROXY-URS-12-EN-28-OATE], for which the inhibition of growth at 10 µM turned out to be 23% with PC-3, 10% in the assay on COLO 205, 7% in the assay on THP-1 and 2% in the assay on A549.
Turning to `C[C@H]1[C@H](C)CC[C@]2(C(=O)OCCCCCCCCCCCCBr)CC[C@]3(C)C(=CC[C@@H]4[C@@]5(C)CC[C@H](O)C(C)(C)[C@@H]5CC[C@]43C)[C@H]12` [BROMODODECYL-3BETA-HYDROXY-URS-12-EN-28-OATE], the inhibition of growth at 10 µM with PC-3, in the assay with COLO 205, in the assay with THP-1 and with A549 was 0% throughout.
Regarding `C[C@H]1[C@H](C)CC[C@]2(C(=O)OCCCCCCBr)CC[C@]3(C)C(=CC[C@@H]4[C@@]5(C)CC[C@H](O)C(C)(C)[C@@H]5CC[C@]43C)[C@H]12` [BROMOHEXYL-3BETA-HYDROXY-URS-12-EN-28-OATE], the inhibition of growth at 10 µM in the assay on PC-3 turned out to be 0%; in the assay on COLO 205 it was 0%; in the assay with THP-1, 3%; with A549, 0%.
For `C[C@H]1[C@H](C)CC[C@]2(C(=O)OCBr)CC[C@]3(C)C(=CC[C@@H]4[C@@]5(C)CC[C@H](O)C(C)(C)[C@@H]5CC[C@]43C)[C@H]12` [BROMOMETHYL-3BETA-HYDROXY-URS-12-EN-28-OATE], the inhibition of growth at 10 µM in the assay with PC-3 was found to be 6%; in the assay on COLO 205, 13%; in the assay on THP-1, 49%; in the assay with A549, 7%.
On the same counts, the results for `C[C@H]1[C@H](C)CC[C@]2(C(=O)OCCCCCCCCCBr)CC[C@]3(C)C(=CC[C@@H]4[C@@]5(C)CC[C@H](O)C(C)(C)[C@@H]5CC[C@]43C)[C@H]12` [BROMONONYL-3BETA-HYDROXY-URS-12-EN-28-OATE] are 9%, 3%, 0% and 0%.
For the compound `COc1cccc2c1C(=O)c1c(O)c3c(c(O)c1C2=O)C[C@@](O)(C(=O)CO)C[C@@H]3O[C@H]1C[C@H](N)[C@H](O)[C@H](C)O1` [DOXORUBICIN HYDROCHLORIDE], the inhibition of growth at 10 µM with COLO 205 turned out to be 89%; in the assay on HeLa, 58%; in the assay on SW-620, 38%; with A549, 50%; in the assay on IMR-32, 82%.
Turning to `O=c1[nH]cc(F)c(=O)[nH]1` [FLUOROURACIL], the inhibition of growth at 10 µM with COLO 205 was found to be 47%; in the assay with THP-1, 69%; with HeLa it was 36%; with SW-620, 42%; in the assay on SiHa it was 38%; with A549 it was 30%. Also, the inhibition of growth at 10 µM with IMR-32 was determined as 29%.
Regarding `COC(=O)[C@]12CCC(C)(C)C[C@H]1C1=CC[C@@H]3[C@@]4(C)CC[C@H](O)C(C)(C)[C@@H]4CC[C@@]3(C)[C@]1(C)CC2` [METHYL OLEANOLATE], the inhibition of growth at 10 µM with COLO 205 came out at 0%; with HeLa, 18%; in the assay on SW-620 it was 8%; with SiHa, 21%; in the assay on A549, 48%; in the assay on IMR-32, 55%.
For `COC(=O)[C@]12CC[C@@H](C)[C@H](C)[C@H]1C1=CC[C@@H]3[C@@]4(C)CC[C@H](O)C(C)(C)[C@@H]4CC[C@@]3(C)[C@]1(C)CC2` [METHYL URSOLATE], the inhibition of growth at 10 µM in the assay on COLO 205 is 0%; in the assay with HeLa, 2%; with SW-620, 0%; in the assay on SiHa it was 21%; in the assay on A549, 20%; in the assay on IMR-32 it was 11%.
Turning to `CO[C@@]12[C@H](COC(N)=O)C3=C(C(=O)C(C)=C(N)C3=O)N1C[C@@H]1N[C@@H]12` [MITOMYCIN], the inhibition of growth at 10 µM in the assay on PC-3 was 61%.
Consider `CC1(C)CC[C@]2(C(=O)O)CC[C@]3(C)C(=CC[C@@H]4[C@@]5(C)CC[C@H](O)C(C)(C)[C@@H]5CC[C@]43C)[C@@H]2C1` [OLEANOLIC_ACID], for which the inhibition of growth at 10 µM worked out at 33% with COLO 205; 26% with HeLa; 24% in the assay with SW-620; 3% in the assay with SiHa; 24% in the assay on A549; 22% in the assay on IMR-32.
As for `CC(=O)O[C@H]1C(=O)[C@@]2(C)[C@H]([C@H](OC(=O)c3ccccc3)[C@]3(O)C[C@H](OC(=O)[C@H](O)[C@@H](NC(=O)c4ccccc4)c4ccccc4)C(C)=C1C3(C)C)[C@]1(OC(C)=O)CO[C@@H]1C[C@@H]2O` [PACLITAXEL], the inhibition of growth at 10 µM in the assay on COLO 205 came out at 67%; in the assay on HeLa, 45%; in the assay on SW-620 it was 36%; in the assay on A549, 44%; in the assay on IMR-32 it was 30%.
